Laboratory results taken from patent US8470964B2, “Peptides derived from NCAM (FGLs)” (Enkam Pharmaceuticals A/S, priority 2007, dated 2013).
Entries after “also recorded” stand apart in the source; their conditions may differ. Where no end group is shown, it is not given here.

Key:
adult male Wistar rats = test: Morris Water Maze spatial learning; assay type: in vivo, rat; conditions: 2.5 mg/kg s.c. as a single dose 5, 3 and 1 day prior to training; versus vehicle
Procedure: FIG. 6. Effects of FGLs on spatial learning in the Morris Water Maze. Rats received FGLs or vehicle subcutaneously as a single dose of 2.5 mg/kg 5, 3 and 1 day prior to first test (trials 1-4 in above graph). The second test (trials 5-8 in above graph) took place the day after the first test. The results were analysed using analysis of variance (ANOVA) and Student's t-test. Data are mean escape latency(s) (±SEM) to find the platform over the 2 training days (t1-t4). *p<0.05, when compared with the Vehicle/Control group at the same time point.
The aim of this study was to investigate whether the subcutaneous administration of FGLs modulates spatial learning in adult male Wistar rats, using the Morris Water Maze as test system.
In the MWM test, rats are evaluated in the task to learn and remember the location of an escape platform hidden just under the water surface. In this study the test set-up was optimised for measuring learning. Rats received FGLs 2.5 mg/kg or vehicle subcutaneously as a single dose 5, 3 and 1 day prior the start of the training in the MWM.

[1] = Visual appearance of peptide diluted in water; assay type: physicochemical; conditions: 100 mg/ml in water, room temperature
Procedure: FIG. 11. Visual appearance of FGLL and FGLs. 100 mg of FGLL and FGLs, respectively were diluted in 1 ml water at room temperature for visual inspection.
FGFL and FGFs were diluted in water at a concentration of 100 mg/ml for visual inspection (FIG. 11). […] In another experiment were 5 mg of FGLL and FGLs respectively diluted in 1 ml water or PBS at room temperature. Light microscopy pictures of the water and PBS solutions of FGLL and FGLs can be seen in FIG. 12. In FIG. 13. is a 90° light-scattering spectra of 100 mg/ml FGFL and FGLs in water showing the difference in intensity between the FGF L and the FGLs, solution.

[2] = tested on: primary cerebellar granule rat cells (CGC); test: Neurite outgrowth of cerebellar granule neurons; assay type: cell-based; conditions: CGC from 7-day old Wistar rats, 24 hrs; bell-shaped dose response
Procedure: FIG. 2. Effects of FGLs on neurite outgrowth of early postnatal rat cerebellar neurons. CGCs were prepared from 7-day old Wistar rats and plated on uncoated eight-well Lab-Tek® chamber The peptide was added to the medium immediately after plating, and cells were maintained at 37° C., 5% CO2 for 24 hrs. CGC cultures were fixed in 4% and then immunostained against rat GAP-43. Neurite outgrowth was determined by image analysis of 200±20 neurons in each individual experiment. The length of neuronal processes per cell was estimated stereologically. The results are given as mean values±SEM from at least three independent experiments and illustrated as percentage of control values. *p<0.05 when compared with control by paired t-test.
This study investigated the effect of FGLs on neurite outgrowth of dissociated primary cerebellar granule rat cells (CGC) cultured in vitro.
Efficacy is found over a range of concentrations corresponding to that of target (FGFR) activation and follows the same bell-shaped dose-response.

[3] = tested on: rat model of (25-35) β-amyloid induced neurotoxicity; test: (25-35) β-amyloid induced neurotoxicity, subcutaneous administration: SRT and neuropathology; assay type: in vivo
Procedure: FIG. 8. The effect of FGLs (administered subcutaneously at the stated doses), or vehicle on the development of cognitive impairment (deficit in short-term social memory) and neurodegeneration after (25-35) β-amyloid (A-β) fragment neurointoxication. Comparisons of RR values to a hypothetical value 0.50 were carried using one-sample t-test. Intergroup comparisons between A-β groups were carried out using One Way ANOVA and Newman-Keuls post-hoc test and comparison between A-β vehicle and sham-operated animals by un-paired t-test.
In the rat model of (25-35) β-amyloid induced neurotoxicity (Delobette et al., 1997; Maurice et al., 1996), (25-35) aggregated β-amyloid neurotoxin is injected intracerebroventricularly leading to progressive deterioration of short-term memory (clearly detectable using the Social Recognition Test (SRT) with a 30-minute inter-trial interval (ITI) (Kogan et al., 2000), and to neurodegeneration in cortex and hippocampus characterized by increases in amyloid burden, tau phosphorylation and micro- and macro-glia activation, as well as neuronal loss (Klementiev et al., 2007).
In this study, 3.2, 0.8, 0.2 mg/kg of FGLs or sterile PBS were administered daily by subcutaneous injection. Administration was started 7 days after i.c.v. administration of an aggregated form of the (25-35) β-amyloid peptide fragment and continued until day 28 when the rats were terminated.
The social memory performance was estimated, using the SRT 21-22 days after i.c.v. administration of the β-amyloid fragment.
A significant neuroprotective effect of FGLs was detected in both areas. The minimum effective dose of FGLs for neuroprotection was 0.8 mg/kg, in hippocampus and 0.2 mg/kg in cingulate cortex.

[4] = daily s.c. from day 7, neuropathology at day 28

For “FGLs: two identical 11 amino acid peptides (VAENQQGKSKA), forming a dimer through a linker molecule (iminodiacetic acid); peptide amide (VAENQQGKSKA-NH2; not fully specified; also: dimer of two identical peptides through iminodiacetic acid linker, attachment site not given here)”, the “spatial learning in Morris Water Maze (escape latency)” value (adult male Wistar rats) was “learned significantly faster than vehicle treated ones”, the “visual appearance of solution” value [1] was “remained clear” and the “concentration range with neurite outgrowth promoting activity” value [2] was 5 to 25 µg/mL. For the same substance, the “short-term memory deficit in SRT compared to placebo-treated rats” value ([3]; 0.8 mg/kg s.c. daily, SRT 21-22 days after i.c.v. β-amyloid) was “statistically significant reduction in the short-term memory deficit”, the “PRESENCE OF A SIGNIFICANT PEPTIDE EFFECT: SRT short-term social recognition memory” value ([3]; daily s.c. 0.2, 0.8, 3.2 mg/kg from day 7, SRT 21-22 days after i.c.v. β-amyloid) was “YES (p < 0.01)^1” and the “EFFECTIVE DOSE OR DOSE RANGE: SRT short-term social recognition memory” value ([3]; daily s.c. from day 7, SRT 21-22 days after i.c.v. β-amyloid) was 0.8 mg/kg. The “EFFECTIVE DOSE OR DOSE RANGE: Density Intact neurons Cingulate cortex” value [3, 4] was 0.8 mg/kg, the “EFFECTIVE DOSE OR DOSE RANGE: Density Intact neurons Hippocampus (CA3)” value [3, 4] was 0.8 mg/kg and the “EFFECTIVE DOSE OR DOSE RANGE: Density damaged neurons Cingulate cortex” value [3, 4] was 0.2 mg/kg. The “EFFECTIVE DOSE OR DOSE RANGE: Density damaged neurons Hippocampus (CA3)” value [3, 4] was 0.8 mg/kg, the “PRESENCE OF A SIGNIFICANT PEPTIDE EFFECT: Density Intact neurons Cingulate cortex” value [3, 4] was “Yes (p < 0.05)^3” and the “PRESENCE OF A SIGNIFICANT PEPTIDE EFFECT: Density Intact neurons Hippocampus (CA3)” value [3, 4] was “YES (P < 0.05)”. The “PRESENCE OF A SIGNIFICANT PEPTIDE EFFECT: Density damaged neurons Cingulate cortex” value [3, 4] was “YES (p < 0.01,”, the “PRESENCE OF A SIGNIFICANT PEPTIDE EFFECT: Density damaged neurons Hippocampus (CA3)” value [3, 4] was “YES (p < 0.05)^3” and the “minimum effective dose for neuroprotection in cingulate cortex” value ([3]; daily s.c., day 28) was 0.2 mg/kg. For the same substance, the “minimum effective dose for neuroprotection in hippocampus” value ([3]; daily s.c., day 28) was 0.8 mg/kg, the “β-amyloid burden in the cingulate cortex” value ([3]; daily s.c., day 28, large variability among animals) was “Neither the lesion, nor the peptide had significant effects; also recorded: did not reach significance” and the “minimum effective dose for neuroprotection” value ([3]; subcutaneous administration) was 0.2 mg/kg. The “minimum effective dose, social recognition memory deficit” value ([3]; subcutaneous administration) was 0.8 mg/kg.
